From PMC6129194 (Bioorganic & medicinal chemistry, 2018)

What was measured:
[1] = test system: MDCK-mdr1 cells; experiment: MDCK-mdr1 monolayer permeability assay; conditions: % transported apical to basal; 10 μM, 1 h, 37 °C, pH 7.4
[2] = cited from earlier work
[3] = cited from earlier work; remark: listed apart in the source

MDCK-mdr1 A to B [1] [%]	SMILES	solubility in acidic media [2]	human liver microsome stability [3]
< 1	N=C(Nc1ccc(F)cc1)N1CCN(c2ncnc3c2nc(-c2ccccc2Cl)n3-c2ccc(Cl)cc2)CC1 [compound 28, 4-[8-(2-Chlorophenyl)-9-(4-chlorophenyl)-9H-purin-6-yl]-N-(4-fluorophenyl)piperazine-1-carboximidamide]		
< 1	CC(C)CS(=O)(=O)N1CCN(c2ncnc3c2nc(-c2ccccc2Cl)n3-c2ccc(Cl)cc2)CC1 [compound 15, 8-(2-Chlorophenyl)-9-(4-chlorophenyl)-6-{4-[(2-methylpropyl)sulfonyl]piperazin-1-yl}-9H-purine]		
	CN1CCN(c2ncnc3c2nc(-c2ccccc2Cl)n3-c2ccc(Cl)cc2)CC1 [compound 5]	good	good

SMILES	MDCK-mdr1 A to B [1] [%]	solubility in acidic media [2]	human liver microsome stability [3]
O=C(OCC1CCC1)N1CCN(c2ncnc3c2nc(-c2ccccc2Cl)n3-c2ccc(Cl)cc2)CC1 [compound 26, Cyclobutylmethyl 4-[8-(2-Chlorophenyl)-9-(4-chlorophenyl)-9H-purin-6-yl]piperazine-1-carboxylate]	< 1		
